Measurements from patent publication EP2289904A1, “Inhibitors of microbial infections” (Universita' degli Studi di Milano, priority 2009, dated 2011).

Columns and labels:
[1] = test system: Ebola virus; conditions: Ebola virus infection model; Reina et al. 2007; cited from earlier work
[2] = molecular target: T1, dendritic cell receptor DC-SIGN (Homo sapiens, UniProt Q9NNX6); conditions: Reina et al. 2007; cited from earlier work
T1 sequence (Q9NNX6 1-404): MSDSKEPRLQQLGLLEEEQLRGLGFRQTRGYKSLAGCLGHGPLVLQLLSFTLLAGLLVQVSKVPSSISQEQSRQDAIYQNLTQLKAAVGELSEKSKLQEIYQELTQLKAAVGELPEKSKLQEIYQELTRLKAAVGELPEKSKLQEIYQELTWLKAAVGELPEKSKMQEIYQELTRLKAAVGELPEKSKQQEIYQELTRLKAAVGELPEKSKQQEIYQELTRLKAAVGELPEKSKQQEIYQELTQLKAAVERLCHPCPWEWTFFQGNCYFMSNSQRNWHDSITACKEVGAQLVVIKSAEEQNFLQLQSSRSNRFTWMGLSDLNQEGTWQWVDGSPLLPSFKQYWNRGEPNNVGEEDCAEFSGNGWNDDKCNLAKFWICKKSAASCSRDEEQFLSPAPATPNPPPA

[3] = test system: HIV-1 BaL; assay: trans-infection of CD4+ T lymphocytes by B-THP-1/DC-SIGN cells exposed to virus in continued presence of inhibitor, p24 ELISA
[4] = test system: HIV-1 BaL; assay: trans-infection assay, B-THP-1/DC-SIGN cells incubated with inhibitor and washed before adding the virus; conditions: 5 mM, cells washed with buffer before adding virus (BaL); Figure 3

COC(=O)[C@H]1C[C@H](OCCN=[N+]=[N-])[C@@H](O[C@H]2O[C@H](CO)[C@@H](O)[C@H](O)[C@@H]2O)C[C@@H]1C(=O)OC [compound 1]
anti-infective action [1]: moderate anti-infective action | binding to DC-SIGN [2]: binds

OC[C@H]1OC(O)[C@@H](O)[C@@H](O)[C@@H]1O (some centres unmarked) [Man4]
activity at 100 µM ([3]; Human immunodeficiency virus 1, BAL, CD4+ T, read-out: infection level): ≥ 30%

COC(=O)[C@H]1C[C@H](OC[C@H]2O[C@H](OCCN=[N+]=[N-])[C@@H](O)[C@@H](O)[C@@H]2O)[C@@H](O[C@H]2O[C@H](CO)[C@@H](O)[C@H](O)[C@@H]2O)C[C@@H]1C(=O)OC [compound 2b, α(1,2)α(1,6)pseudomannotriose]
antiinfective activity in the trans-infection assay [4]: no antiinfective activity | concentration needed to reach a similar inhibition level, compared with 12 ([3]; HIV-1 BaL, Figure 2): much higher concentration
